Source: US12497642B2, “Incorporation of unnatural nucleotides and methods of use in vivo thereof” (THE SCRIPPS RESEARCH INSTITUTE, priority 2017, dated 2025)
Several values for one entry are separate records, joined by “and”; a condition that tells them apart may be missing. Identical values can stand only once.

Experiments:
[1] = test system: semi-synthetic organism (SSO) (strain YZ3); assay: Replication and UBP retention in vivo in the semi-synthetic organism (streptavidin biotin shift, PAGE), Example 1; format: cell-based, Escherichia coli; details: for UBP retention in vivo, in words: discussion
Protocol: All bacteria were cultured in 100 μL of liquid 2×YT media (casein peptone 16 g/L, yeast extract 10 g/L, NaCl 5 g/L) supplemented with potassium phosphate (50 mM, pH 7) in 96-well microwell plates. When noted, antibiotics were used at the following concentrations: chloramphenicol, 5 μg/mL; ampicillin, 100 μg/mL. Cell growth, indicated as OD600, was measured using a Perkin Elmer EnVision 2103 Multilabel Reader with a 590/20 nm filter. Unless otherwise stated, molecular biology reagents were purchased from New England Biolabs (Ipswich, MA) and were used according to the manufacturer's protocols. As necessary, purification of nucleic acids was accomplished by micro-elution columns (Zymo Research Corp; Irvine, CA). All natural oligonucleotides were purchased from IDT (San Diego, CA), and oligonucleotides containing dNaM were synthesized by Biosearch Technologies (Petaluma, CA) with purification by reverse phase cartridge. Unnatural nucleotide triphosphates were prepared, and confirmed by MALDI-TOF and UV/Vis.
Plasmids containing the dNaM-dTPT3 UBP were prepared and used to transform the semi-synthetic organism (SSO). To create a template for in vivo replication assays, Golden Gate assembly was used to construct a derivative of the pUC19 plasmid in which a single dNaM-dTPT3 UBP was embedded within the TK1 sequence ([…]; […]), a context within which the UBP is well replicated in the SSO. Plasmids were then used to transform the SSO (strain YZ3). Following transformation, the SSO was allowed to recover at 37° C. for 1 h in media containing dNaMTP (125 μM) and dTPT3TP (25 μM). Cells were pelleted by centrifugation, resuspended in fresh media lacking unnatural triphosphates, split into 100-μL aliquots and then used to inoculate cultures containing different pairs of unnatural triphosphates at the specified concentrations. When the cell density reached an OD600 of ˜0.7, cells were pelleted and plasmids were recovered and PCR amplified with d5SICSTP and a biotinylated analog of dNaMTP, and UBP retention was determined by comparing the intensity of the streptavidin shifted and unshifted bands via PAGE.

[2] = biological target: T1, Klenow fragment of E. coli DNA polymerase I (Escherichia coli, UniProt P00582); assay: Steady-state kinetic assay of unnatural triphosphate insertion; format: biochemical; details: insertion opposite dY = dA in template
T1 construct: the Klenow fragment of E. coli DNA polymerase I

[3] = context 1, dNaMTP 125 μM, dTPT3TP analog 125 μM
[4] = context 2 (AXA), dTPT3TP 2.5 μM, dNaMTP analog 2.5 μM
[5] = context 2 (AXA), dTPT3TP 2.5 μM, dNaMTP analog 10 μM
[6] = context 2 (AXA), dTPT3TP 2.5 μM, dNaMTP analog 25 μM
[7] = context 2 (AXA), dTPT3TP 10 μM, dNaMTP analog 2.5 μM
[8] = context 2 (AXA), dTPT3TP 10 μM, dNaMTP analog 10 μM
[9] = context 2 (AXA), dTPT3TP 10 μM, dNaMTP analog 25 μM
[10] = context 2 (AXA), dTPT3TP 25 μM, dNaMTP analog 2.5 μM
[11] = context 2 (AXA), dTPT3TP 25 μM, dNaMTP analog 10 μM
[12] = context 2 (AXA), dTPT3TP 25 μM, dNaMTP analog 25 μM
[13] = context 2 (AXA), paired with dSICSTP 10 μM, dNaMTP analog 25 μM
[14] = context 3 (CXC), dTPT3TP 2.5 μM, dNaMTP analog 2.5 μM
[15] = context 3 (CXC), dTPT3TP 2.5 μM, dNaMTP analog 10 μM
[16] = context 3 (CXC), dTPT3TP 2.5 μM, dNaMTP analog 25 μM
[17] = context 3 (CXC), dTPT3TP 10 μM, dNaMTP analog 2.5 μM
[18] = context 3 (CXC), dTPT3TP 10 μM, dNaMTP analog 10 μM
[19] = context 3 (CXC), dTPT3TP 10 μM, dNaMTP analog 25 μM
[20] = context 3 (CXC), dTPT3TP 25 μM, dNaMTP analog 2.5 μM
[21] = context 3 (CXC), dTPT3TP 25 μM, dNaMTP analog 10 μM
[22] = context 3 (CXC), dTPT3TP 25 μM, dNaMTP analog 25 μM
[23] = dNaMTP analog paired with dTPT3TP

T1 sequence (P00582 324-928): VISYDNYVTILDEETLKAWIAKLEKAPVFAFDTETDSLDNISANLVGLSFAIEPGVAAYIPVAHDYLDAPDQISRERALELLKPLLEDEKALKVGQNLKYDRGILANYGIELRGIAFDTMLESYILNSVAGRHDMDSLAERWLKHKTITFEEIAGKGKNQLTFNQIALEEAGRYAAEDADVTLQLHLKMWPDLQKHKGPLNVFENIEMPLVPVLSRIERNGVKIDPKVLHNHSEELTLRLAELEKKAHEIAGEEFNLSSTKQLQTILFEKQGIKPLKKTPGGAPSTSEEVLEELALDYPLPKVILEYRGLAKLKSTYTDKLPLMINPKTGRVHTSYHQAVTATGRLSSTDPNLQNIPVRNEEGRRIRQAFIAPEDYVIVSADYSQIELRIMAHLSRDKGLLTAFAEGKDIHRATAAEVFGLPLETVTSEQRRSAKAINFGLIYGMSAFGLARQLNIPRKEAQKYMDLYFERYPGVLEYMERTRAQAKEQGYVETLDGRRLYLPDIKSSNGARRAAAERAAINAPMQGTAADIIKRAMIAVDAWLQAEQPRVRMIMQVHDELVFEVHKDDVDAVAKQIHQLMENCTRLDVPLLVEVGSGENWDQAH

Compound	UBP retention [1, 3]	UBP retention (%) [1, 4]	UBP retention (%) [1, 5]	UBP retention (%) [1, 6]	UBP retention (%) [1, 7]	UBP retention (%) [1, 8]	UBP retention (%) [1, 9]	UBP retention (%) [1, 10]	UBP retention (%) [1, 11]	UBP retention (%) [1, 12]	UBP retention [1, 13]	UBP retention (%) [1, 14]	UBP retention (%) [1, 15]	UBP retention (%) [1, 16]	UBP retention (%) [1, 17]	UBP retention (%) [1, 18]	UBP retention (%) [1, 19]	UBP retention (%) [1, 20]	UBP retention (%) [1, 21]	UBP retention (%) [1, 22]	further results
Cc1ccc2ccn(C3CC(O)C(COP(=O)(O)OP(=O)(O)OP(=O)(O)O)O3)c(=S)c2c1 (stereo not shown) [d4SICS]	significant UBP retention																				
COc1cc(C)c(F)cc1C1CC(O)C(COP(=O)(O)OP(=O)(O)OP(=O)(O)O)O1 (stereo not shown) [d5FMTP]		47 ± 14%	61 ± 27%	75 ± 6%	69 ± 6%	83 ± 5%	87 ± 12%	76 ± 9%	95 ± 3%	90 ± 7%	68%	9 ± 6%	10 ± 5%	11 ± 8%	6 ± 4%	14 ± 5%	27 ± 14%	14 ± 3%	33 ± 16%	49% and 49 ± 27%	
COc1cc(C#N)ccc1C1CC(O)C(COP(=O)(O)OP(=O)(O)OP(=O)(O)O)O1 (stereo not shown) [dCNMOTP]		92 ± 4%	82 ± 24%	91 ± 10%	88 ± 9%	91 ± 3%	95 ± 2%	103 ± 7%	103 ± 1%	101 ± 10%	59%	9 ± 1%	22 ± 10%	31 ± 14%	13 ± 5%	28 ± 7%	35 ± 8%	22 ± 7%	25 ± 22%	42% and 42 ± 18%	UBP retention (%) ([1]; Table 5, sequence context 1 (AXT), dTPT3TP 25 μM, dNaMTP or dCNMOTP 25 μM): 98%; UBP retention (%) ([1]; Table 5, sequence context 1 (AXT), dTPT3TP 25 μM, dNaMTP or dCNMOTP 25 μM, listed as dCNMO): 98 ± 7%; UBP retention (%) ([1]; Table 5, sequence context 1 (AXT), dTPT3TP 25 μM, dNaMTP or dCNMOTP 125 μM): 99 ± 8%; UBP retention (%) ([1]; Table 5, sequence context 2 (AXA), dTPT3TP 25 μM, dNaMTP or dCNMOTP 25 μM): 101 ± 10%; UBP retention (%) ([1]; Table 5, sequence context 2 (AXA), dTPT3TP 25 μM, dNaMTP or dCNMOTP 125 μM): 100 ± 10%; UBP retention (%) ([1]; Table 5, sequence context 3 (CXC), dTPT3TP 25 μM, dNaMTP or dCNMOTP 25 μM): 42%; UBP retention (%) ([1]; Table 5, sequence context 3 (CXC), dTPT3TP 25 μM, dNaMTP or dCNMOTP 25 μM, listed as dCNMO): 42 ± 18%; UBP retention (%) ([1]; Table 5, sequence context 3 (CXC), dTPT3TP 25 μM, dNaMTP or dCNMOTP 125 μM): 65%; UBP retention (%) ([1]; Table 5, sequence context 3 (CXC), dTPT3TP 25 μM, dNaMTP or dCNMOTP 125 μM, listed as dCNMO): 65 ± 7%; UBP retention (%) ([1]; Table 5, sequence context 4 (CXG), dTPT3TP 25 μM, dNaMTP or dCNMOTP 25 μM): 14 ± 5%; UBP retention (%) ([1]; Table 5, sequence context 4 (CXG), dTPT3TP 25 μM, dNaMTP or dCNMOTP 125 μM): 24%; UBP retention (%) ([1]; Table 5, sequence context 4 (CXG), dTPT3TP 25 μM, dNaMTP or dCNMOTP 125 μM, listed as dCNMO): 24 ± 13%
COc1cc(Cl)ccc1C1CC(O)C(COP(=O)(O)OP(=O)(O)OP(=O)(O)O)O1 (stereo not shown) [dClMOTP]		73 ± 10%	84 ± 7%	86 ± 6%	83 ± 9%	89 ± 5%	96 ± 2%	80 ± 20%	92 ± 4%	98 ± 4%	61%	9 ± 2%	7 ± 4%	12 ± 2%	9 ± 1%	15 ± 2%	14 ± 5%	8 ± 4%	20 ± 7%	21%	UBP retention (%) ([1]; context 3 (CXC), dTPT3TP 25 μM, dNaMTP analog 25 μM, listed as dCIMOTP): 21 ± 14%
C#Cc1cc(OC)c(C2CC(O)C(COP(=O)(O)OP(=O)(O)OP(=O)(O)O)O2)cc1F (stereo not shown) [dFEMOTP]																					UBP retention in vivo, in words [1, 23]: well retained in vivo when supplemented at high concentrations
Cc1cc2c(=S)n(C3CC(O)C(COP(=O)(O)OP(=O)(O)OP(=O)(O)O)O3)ccc2o1 (stereo not shown) [dFPT1]	significant UBP retention																				
COc1cc(C)ccc1C1CC(O)C(COP(=O)(O)OP(=O)(O)OP(=O)(O)O)O1 (stereo not shown) [dMMO2TP]		17 ± 8%	54 ± 19%	47 ± 20%	68 ± 16%	67 ± 16%	88 ± 7%	63 ± 31%	86 ± 11%	90 ± 4%	19%	5 ± 3%	10 ± 3%	13 ± 4%	9 ± 3%	16 ± 10%	22 ± 10%	19 ± 8%	36 ± 12%	45% and 45 ± 20%	
O=P(O)(O)OP(=O)(O)OP(=O)(O)OCC1OC(n2ccc3ccccc3c2=S)CC1O (stereo not shown) [dSICSTP]	significant UBP retention																				
O=P(O)(O)OP(=O)(O)OP(=O)(O)OCC1OC(n2ccc3ncccc3c2=S)CC1O (stereo not shown) [dSNICS]	significant UBP retention																				UBP retention in vivo, in words ([1]; dTPT3TP analog paired with dNaMTP): moderate retention at both low and high concentrations
Cc1cc2c(=S)n(C3CC(O)C(COP(=O)(O)OP(=O)(O)OP(=O)(O)O)O3)ccc2s1 (stereo not shown) [dTPT1]	significant UBP retention																				
O=P(O)(O)OP(=O)(O)OP(=O)(O)OCC1OC(n2ccc3ccsc3c2=S)CC1O (stereo not shown) [dTPT3TP]	significant UBP retention																				UBP retention ([1]; context 2 (AXA), dTPT3TP 10 μM paired with each of the four dNaMTP analogs at 25 μM): > 87%
Cc1cn([C@H]2C[C@H](O)[C@@H](COP(=O)(O)OP(=O)(O)OP(=O)(O)O)O2)c(=O)[nH]c1=O [dTTP, reference compound]																					kcat [2]: 0.085 s⁻¹ and 0.0853 ± 0.0127 s⁻¹
COc1cc(N=[N+]=[N-])ccc1C1CC(O)C(COP(=O)(O)OP(=O)(O)OP(=O)(O)O)O1 (stereo not shown) [dZMOTP]																					UBP retention in vivo, in words [1, 23]: well retained in vivo when supplemented at high concentrations
